“Also recorded” adds a separate entry of the source.
What was measured:
[1] = format: physicochemical
Text: [drawing 2] is a selective, orally bioavailable PKR Activating Compound that decreases 2,3-DPG, increases ATP, and has anti-sickling effects in disease models with a wide therapeutic margin relative to preclinical toxicity. Compound 1 is a potent activator of PKR and a multi-modal metabolic modulator of RBCs. Activation of PKR simultaneously reduces 2,3-DPG concentrations, which increases hemoglobin-oxygen affinity and decreases sickling, while also increasing intracellular ATP, which improves RBC health and reduces hemolysis, or RBC death. Compound 1 is a BCS class II compound with poor water solubility and high permeability.

[2] = tested on: estradiol and testosterone levels; test: Circulating estradiol and testosterone in healthy subjects, 14 days; format: in vivo, human; conditions: up to 14 days, 100-300 mg BID or 400 mg QD
Description: Effects on circulating levels of estradiol and testosterone in male and female healthy subjects receiving Compound 1 or placebo for a treatment period of 14 days were evaluated. Compound 1 was administered twice daily (BID) at dose levels of 100 mg, 200 mg, and 300 mg, and once daily (QD) at a dose level of 400 mg. Each dosing cohort was comprised of 9 subjects treated with Compound 1 and 3 subjects treated with placebo. Testosterone and estradiol levels were assessed prior to dosing (baseline), and then on days 8, 14 and 17.

[3] = Phase 1: safety (adverse events) in SCD patients; format: in vivo, human
Description: In the SD cohort, 7 pts (2 males, 5 females, all HbSS) received 700 mg Compound 1 (n=5) or placebo (n=2).
All SCD patients who received a single 700 mg dose of Compound 1 or placebo were monitored for adverse events for 7 days. The incidence of treatment emergent adverse events (TEAEs) in SCD patients receiving Compound 1 (700 mg) or placebo are reported in Table 23. Six TEAEs were reported in 4 patients; all TEAEs were grade 1 and transient. Specifically, six TEAEs were reported in 4 of 7 (57%) patients, including 3 TEAEs (arthralgia, headache, palpitations) in 2 of 5 (40%) pts receiving Compound 1 and 3 TEAEs (back pain, myalgia, pruritis) in 2 of 2 (100%) pts receiving placebo; all TEAEs were grade 1 and transient. […] One possibly related TEAE (palpitations) occurred about 8 hours post dose. No other symptoms were observed, and the palpitations resolved in <1 minute. […] The single 700 mg dose of Compound 1 was considered tolerable, and the first multiple dose SCD cohort was initiated.
Based on data from the MAD1 (300 mg once daily for 14 days), Compound 1 is well-tolerated in patients with SCD. In all, eighteen TEAEs were reported in 7 of 9 patients in the MAD1 (300 mg once daily) cohort (N=9). These included (a) eight Grade 1 TEAEs, including 3 patients c/o headache, 1 each of nausea, constipation, somnolence, increased LDH and increased AST, of which two AEs considered to be possibly related to study treatment were reported by one patient each (1 AE of headache and 1 AE of nausea); (b) six Grade 2 TEAEs, including 3 uncomplicated sickle pain events (in 2 patients), 1 patient with N/V and 1 increased reticulocytes, of which no AEs were considered related to study treatment, all AEs of pain events were considered unrelated and consistent with each patient's SCD pain history, and all AEs were treated with patient's standard home pain medications (no SAE/no hospitalization); and (c) one Grade 4 TEAE of elevated creatine kinase, unrelated to study treatment. Non-treatment-related AEs were consistent with events experienced in this patient population. No treatment-related serious AEs were reported.

## O=C([C@H](CO)c1ccccc1)N1CC2=C(C1)CN(S(=O)(=O)c1cnc3c(c1)OCCO3)C2 (single isomer, unassigned) [Compound 1]
[1]
  BCS class: BCS class II
[2]
  testosterone and estradiol levels: no effect on estradiol and testosterone levels; also recorded: No effect on testosterone or estradiol levels; also recorded: no statistically significant changes and no clinically meaningful trends
[3]; SCD 300 mg × 14 days (n = 7)
  Any TEAE, n (%): 6 (86%) n (%)
  Any serious adverse event (SAE), n (%): 0 n (%)
  Related to study drug, n (%): 2 (29%) n (%)
[3]; SCD 400 mg QD, 84 days (12 weeks), open-label
  tolerability: well-tolerated
[3]; SCD SD cohort
  serious adverse events / TEAEs leading to withdrawal: No serious adverse events (SAEs) or TEAEs leading to pt withdrawal were reported
[3]; SCD single 700 mg (N = 5)
  Any TEAE, n (%): 2 (40) n (%)
  Related to study drug, n (%): 1 (20) n (%)

Reference: patent US12128035B2, “Activating pyruvate kinase R” (Novo Nordisk Health Care AG, priority 2021, dated 2024)
